≈ marks a conversion by molar mass, not a printed value.
Test system: Staphylococcus aureus (SAUR 9213)
Assay: MIC by standard agar dilution method
Format: cell-based
Conditions: Mueller Hinton agar, incubated overnight at 35° C., read-out: MIC
Description: The antibacterial agents of this invention have useful activity against a variety of organisms. The in vitro activity of compounds of this invention can be assessed by standard testing procedures such as the determination of minimum inhibitory concentration (MIC) by agar dilution as described in “Approved Standard. Methods for Dilution Antimicrobial Susceptibility Tests for Bacteria That Grow Aerobically”, 3rd. ed., published 1993 by the National Committee for Clinical Laboratory Standards, Villanova, Pa., USA. The in vitro MICs of test compounds are determined by a standard agar dilution method. A stock drug solution of each analog is prepared in the preferred solvent, usually DMSO:H2O (1:3). Serial 2-fold dilutions of each sample are made using 1.0 ml aliquots of sterile distilled water. To each 1.0 ml aliquot of drug is added 9 ml of molten Mueller Hinton agar medium. The drug-supplemented agar is mixed, poured into 15×100 mm petri dishes, and allowed to solidify and dry prior to inoculation. Vials of each of the test organisms are maintained frozen in the vapor phase of a liquid nitrogen freezer. Test cultures are grown overnight at 35° C. on the medium appropriate for the organism. Colonies are harvested with a sterile swab, and cell suspensions are prepared in Trypticase Soy broth (TSB) to equal the turbidity of a 0.5 McFarland standard. A 1:20 dilution of each suspension is made in TSB. The plates containing the drug supplemented agar are inoculated with a 0.001 ml drop of the cell suspension using a Steers replicator, yielding approximately 10^4 to 10^5 cells per spot. The plates are incubated overnight at 35° C. Following incubation the Minimum Inhibitory Concentration (MIC μg/ml), the lowest concentration of drug that inhibits visible growth of the organism, is read and recorded.

Row | Structure (SMILES) | MIC [µg/mL]
1 | CNC(=O)[C@H]1CN(c2ccc3c(c2)CCC(=O)N3C)C(=O)O1 [Example 68, (5R)-N-Methyl-3-(1-methyl-2-oxo-1,2,3,4-tetrahydroquinolin-6-yl)-2-oxo-5-oxazolidinecarboxamide] | 4 (≈ 13.2 µM)
2 | CCn1c(=O)oc2cc(N3C[C@H](C(=O)NC)OC3=O)cc(F)c21 [Example 90, (5R)-3-(3-Ethyl-4-fluoro-2-oxo-2,3-dihydro-6-benzoxazolyl)-N-methyl-2-oxo-5-oxazolidinecarboxamide] | 4 (≈ 12.4 µM)
3 | CCNC(=O)[C@H]1CN(c2ccc(N3C=CC(=O)CC3)c(F)c2)C(=O)O1 [Example 71, (5R)-N-Ethyl-3-[4-(4-oxo-3,4-dihydro-1(2H)-pyridinyl)-3-fluorophenyl]-2-oxo-5-oxazolidinecarboxamide] | 4 (≈ 11.5 µM)
4 | NC(=O)[C@H]1CN(c2ccc(N3C=CC(=NO)CC3)c(F)c2)C(=O)O1 (racemic) [Example 79, (5R)-3-[4-[3,4-Dihydro-4-(hydroxyimino)-1(2H)-pyridinyl]-3-fluorophenyl]-2-oxo-5-oxazolidinecarboxamide] | 1 (≈ 2.99 µM)
5 | CN1C(=O)CSc2cc(N3C[C@H](C(N)=O)OC3=O)ccc21 [Example 62, (5R)-3-(3,4-Dihydro-4-methyl-3-oxo-2H-1,4-benzothiazin-7-yl)-2-oxo-5-oxazolidinecarboxamide] | 4 (≈ 13 µM)
6 | CNC(=O)[C@H]1CN(c2ccc(N3C=CC(=O)CC3)c(F)c2)C(=O)O1 [Example 70, (5R)-N-Methyl-3-[4-(4-oxo-3,4-dihydro-1(2H)-pyridinyl)-3-fluorophenyl]-2-oxo-5-oxazolidinecarboxamide] | 2 (≈ 6 µM)
7 | CCNC(=O)[C@H]1CN(c2ccc(N3C=CC(=O)CC3)cc2)C(=O)O1 [Example 74, (5R)-N-Ethyl-3-[4-(4-oxo-3,4-dihydro-1(2H)-pyridinyl)phenyl]-2-oxo-5-oxazolidinecarboxamide] | 8 (≈ 24.3 µM)
8 | CNC(=O)[C@H]1CN(c2cc(F)c([C@H]3CC[S@+]([O-])CC3)c(F)c2)C(=O)O1 [Example 48, (5R)-N-Methyl-3-[3,5-difluoro-4-(trans-tetrahydro-1-oxido-2H-thiopyran-4-yl)phenyl]-2-oxo-5-oxazolidinecarboxamide] | 2 (≈ 5.37 µM)
9 | CNC(=O)[C@H]1CN(c2cc(F)c(N3C=CC(=O)CC3)c(F)c2)C(=O)O1 [Example 77, (5R)-N-Methyl-3-[4-(4-oxo-3,4-dihydro-1(2H)-pyridinyl)-3,5-difluorophenyl]-2-oxo-5-oxazolidinecarboxamide] | 2 (≈ 5.69 µM)
10 | NC(=O)[C@H]1CN(c2ccc(N3C=CC(=O)CC3)cc2)C(=O)O1 [Example 72, (5R)-3-[4-(4-Oxo-3,4-dihydro-1(2H)-pyridinyl)phenyl]-2-oxo-5-oxazolidinecarboxamide] | 2 (≈ 6.64 µM)
11 | NC(=O)[C@H]1CN(c2cc(F)c(N3C=CS(=O)(=O)CC3)c(F)c2)C(=O)O1 [Example 65, (5R)-3-[4-(1,1-dioxido-2,3-dihydro-4H-1,4-thiazin-4-yl)-3,5-difluorophenyl]-2-oxo-5-oxazolidinecarboxamide] | 2 to 4 (≈ 5.36 to 10.7 µM)
12 | CNC(=O)[C@H]1CN(c2ccc([C@H]3CC[S@+]([O-])CC3)c(F)c2)C(=O)O1 [Example 85, (5R)-N-Methyl-3-[3-fluoro-4-(trans-tetrahydro-1-oxido-2H-thiopyran-4-yl)phenyl]-2-oxo-5-oxazolidinecarboxamide] | 2 (≈ 5.64 µM)
13 | CNC(=O)[C@H]1CN(c2ccc3c(c2)OCC(=O)N3C)C(=O)O1 [Example 60, (5R)-N-Methyl-3-(3,4-dihydro-4-methyl-3-oxo-2H-1,4-benzoxazin-7-yl)-2-oxo-5-oxazolidinecarboxamide] | 2 (≈ 6.55 µM)
14 | CNC(=O)[C@H]1CN(c2cc(F)c3c(c2)oc(=O)n3C)C(=O)O1 [Example 89, (5R)-3-(4-Fluoro-3-methyl-2-oxo-2,3-dihydro-6-benzoxazolyl)-N-methyl-2-oxo-5-oxazolidinecarboxamide] | 16 (≈ 51.7 µM)
15 | COC(=O)N1CC(C)(c2c(F)cc(N3C[C@H](C(N)=O)OC3=O)cc2F)C1 [Example 57, (5R)-(−)-3-[3,5-Difluoro-4-(1-methoxycarbonyl-3-methylazetidin-3-yl)phenyl]-2-oxo-5-oxazolidinecarboxamide] | 8 (≈ 21.7 µM)
16 | CNC(=O)[C@H]1CN(c2cc(F)c(C3(C)CN(C(=O)OC)C3)c(F)c2)C(=O)O1 [Example 58, (5R)-(−)-N-Methyl-3-[3,5-difluoro-4-(1-methoxycarbonyl-3-methylazetidin-3-yl)phenyl]-2-oxo-5-oxazolidinecarboxamide] | 8 (≈ 20.9 µM)
17 | CNC(=O)[C@H]1CN(c2ccc3c(c2)OC(F)(F)C(=O)N3C)C(=O)O1 [Example 81, (5R)-N-Methyl-3-(2,2-difluoro-4-methyl-3,4-dihydro-3-oxo-2H-1,4-benzoxazin-7-yl)-2-oxo-5-oxazolidinecarboxamide] | 4 (≈ 11.7 µM)
18 | O=C1C=CN(c2ccc(N3C[C@H](C(=O)NCCF)OC3=O)cc2)CC1 [Example 75, (5R)-N-(2-Fluoroethyl)-3-[4-(4-oxo-3,4-dihydro-1(2H)-pyridinyl)phenyl]-2-oxo-5-oxazolidinecarboxamide] | 8 (≈ 23 µM)

More lines, in order of falling MIC, values ahead:

Row | MIC [µg/mL] | Structure (SMILES)
19 | 8 (≈ 23.7 µM) | CN1C(=O)COc2cc(N3C[C@H](C(=O)NCCF)OC3=O)ccc21 [Example 61, (5R)-N-(2-Fluoroethyl)-3-(3,4-dihydro-4-methyl-3-oxo-2H -1,4-benzoxazin-7-yl)-2-oxo-5-oxazolidinecarboxamide]
20 | 4 (≈ 11.9 µM) | CNC(=O)[C@H]1CN(c2cc(F)c3c(c2)oc(=O)n3C(C)C)C(=O)O1 [Example 91, (5R)-3-(4-Fluoro-3-isopropyl-2-oxo-2,3-dihydro-6-benzoxazolyl)-N-methyl-2-oxo-5-oxazolidinecarboxamide]
21 | 4 (≈ 12.4 µM) | CNC(=O)[C@H]1CN(c2ccc3c(c2)SCC(=O)N3C)C(=O)O1 [Example 63, (5R)-N-Methyl-3-(3,4-dihydro-4-methyl-3-oxo-2H-1,4-benzothiazin-7-yl)-2-oxo-5-oxazolidinecarboxamide]
22 | 4 (≈ 12.9 µM) | NC(=O)[C@H]1CN(c2cc(F)c(N3CC=CC3)c(F)c2)C(=O)O1 [Example 66, (5R)-3-[4-(2,5-Dihydro-1H-pyrrol-1-yl)-3,5-difluorophenyl]-2-oxo-5-oxazolidinecarboxamide]
23 | 4 (≈ 13.5 µM) | Cn1c(=O)oc2cc(N3C[C@H](C(N)=O)OC3=O)cc(F)c21 [Example 86, (5R)-3-(4-Fluoro-3-methyl-2-oxo-2,3-dihydro-6-benzoxazolyl)-2-oxo-5-oxazolidinecarboxamide]
24 | 2 (≈ 6.11 µM) | CN1C(=O)C(F)(F)Oc2cc(N3C[C@H](C(N)=O)OC3=O)ccc21 [Example 80, (5R)-3-(2,2-Difluoro-4-methyl-3,4-dihydro-3-oxo-2H-1,4-benzoxazin-7-yl)-2-oxo-5-oxazolidinecarboxamide]
25 | 2 (≈ 6.34 µM) | CNC(=O)[C@H]1CN(c2ccc(N3C=CC(=O)CC3)cc2)C(=O)O1 [Example 73, (5R)-N-Methyl-3-[4-(4-oxo-3,4-dihydro-1(2H)-pyridinyl)phenyl]-2-oxo-5-oxazolidinecarboxamide]
26 | 2 (≈ 6.18 µM) | CN1C(=S)CSc2cc(N3C[C@H](C(N)=O)OC3=O)ccc21 [Example 84, 3-(4-Methyl-3-thioxo-3,4-dihydro-2H-1,4-benzothiazin-7-yl)-2-oxo-5-oxazolidinecarboxamide]
27 | 2 (≈ 6.47 µM) | CCn1c(=O)oc2cc(N3C[C@H](C(N)=O)OC3=O)cc(F)c21 [Example 87, (5R)-3-(3-Ethyl-4-fluoro-2-oxo-2,3-dihydro-6-benzoxazolyl) -2-oxo-5-oxazolidinecarboxamide]

From patent publication US7645781B2, “N-aryl-2-oxazolidinone-5-carboxamides and their derivatives” (Pfizer Inc, priority 2002, dated 2010)
